Legend:
Type in all cases: cell-based, human
sh-DNMT1 NCI-H82 cell = assay: CellTiter-Glo cell viability, sh-DNMT1 NCI-H82 cell (DNMT1 knocked down); conditions: Homo sapiens, NCI-H82, NCI-H82 with DNMT1 knocked down by shRNA, intracellular ATP, read-out: inhibitory effect on sh-DNMT1 NCI-H82 (IC50)
ov-NNMT NCI-H82 cell = assay: CellTiter-Glo cell viability, ov-NNMT NCI-H82 cell (NNMT overexpressed); conditions: Homo sapiens, NCI-H82, NCI-H82 overexpressing NNMT protein, intracellular ATP, read-out: inhibitory effect on OV-NNMT NCI-H82 (IC50)
Con-NCI-H82 cell = assay: CellTiter-Glo cell viability, Con-NCI-H82 cell (empty-vector control); conditions: Homo sapiens, NCI-H82, NCI-H82 transfected with empty virus vector (control), intracellular ATP, read-out: inhibitory effect on Con-NCI-H82 (IC50)

Row | Compound | IC50 (sh-DNMT1 NCI-H82 cell) [µM] | IC50 (ov-NNMT NCI-H82 cell) [µM] | IC50 (Con-NCI-H82 cell) [µM]
1 | COc1ccc2c(c1OC)CN1CCc3cc4c(cc3C1=C2Cc1ccc(C(C)C)cc1)OCO4 [AB31870] | 2.54 | 1.32 | 0.53
2 | CCCCC1c2c(c(Br)cc(OC)c2OC)C=C2c3cc4c(cc3CCN21)OCO4 (stereo not drawn) [AB31873] | 6.08 | 6.32 | 2.88
3 | COc1ccc2c(c1OCCCBr)CN1CCc3cc4c(cc3C1C2)OCO4 (stereo not drawn) [AB31878] | 8.46 | 7.98 | 8.23
4 | CCCCCCC1c2c(ccc(OC)c2OC)C=C2c3cc4c(cc3CCN21)OCCO4 (stereo not drawn) [AB31880] | 3.86 | 3.32 | 0.99
5 | COc1ccc2c(c1OCCCCOc1ccccc1)C(C)N1CCc3cc4c(cc3C1=C2)OCO4 (stereo not drawn) [AB31881] | 3.98 | 4.04 | 2.01
6 | COc1ccc2c(c1OCCCBr)C(C)N1CCc3cc4c(cc3C1=C2)OCO4 (stereo not drawn) [AB31887] | 5.69 | 5.78 | 2.83
7 | COc1ccc2c(c1OCCCCCCCl)C(C)N1CCc3cc4c(cc3C1=C2)OCO4 (stereo not drawn) [AB31888] | 6.12 | 4.64 | 2.26
8 | COc1ccc2c(c1NCCc1ccccc1)C(C)N1CCc3cc4c(cc3C1=C2)OCO4 (stereo not drawn) [AB31895] | 4.68 | 3.24 | 1.14
9 | COc1ccc2c(c1OC(=O)CC13CC4CC(CC(C4)C1)C3)C(C)N1CCc3cc4c(cc3C1=C2)OCO4 (stereo not drawn) [AB31896] | 3.98 | 4.53 | 1.31
10 | COc1ccc2c(c1OCCCCCCBr)C(C)N1CCc3cc4c(cc3C1=C2)OCO4 (stereo not drawn) [AB31897] | 4.96 | 5.32 | 1.43
11 | COc1ccc2c(c1OC)C(C)N1CCc3cc4c(cc3C1=C2)OCCO4 (stereo not drawn) [AB31898] | 12.1 | 8.64 | 3.69
12 | COc1ccc2c(c1OC/C=C(\C)CCC=C(C)C)C(C)N1CCc3cc4c(cc3C1=C2)OCO4 (stereo not drawn) [AB35402] | 3.45 | 2.43 | 0.88
13 | COc1ccc2c(c1OCCCCCCNC(=O)OC(C)(C)C)C(C(Cl)(Cl)Cl)N1CCc3cc4c(cc3C1=C2)OCO4 (stereo not drawn) [AB35407] | 3.44 | 2.73 | 0.74
14 | COc1ccc2c(c1OC)C(C)N1CCc3cc4c(cc3C1=C2CCCc1ccccc1)OCO4 (stereo not drawn) [AB35411] | 4.34 | 2.51 | 1.24
15 | CC1c2c(ccc3c2OCO3)C=C2c3cc4c(cc3CCN21)OCO4 (stereo not drawn) [AB35413] | 20.3 | 14.2 | 5.48
16 | COc1ccc2c(c1OCCCCCCNC(=O)OC(C)(C)C)C(C)N1CCc3cc4c(cc3C1=C2)OCO4 (stereo not drawn) [AB35415] | 5.48 | 3.42 | 1.14
17 | COc1ccc2c(c1OCCNC(=O)OC(C)(C)C)C(C(Cl)(Cl)Cl)N1CCc3cc4c(cc3C1=C2)OCO4 (stereo not drawn) [AB35416] | 6.35 | 5.23 | 2.31
18 | CCCCCC1=C2c3cc4c(cc3CCN2C(C(Cl)(Cl)Cl)c2c1ccc(OC)c2OC)OCO4 (stereo not drawn) [AB35418] | 2.25 | 1.26 | 0.53
19 | COc1ccc2c(c1OCCN1CCCCC1)C(C(Cl)(Cl)Cl)N1CCc3cc4c(cc3C1=C2)OCO4 (stereo not drawn) [AB35420] | 18.2 | 12.5 | 4.99
20 | ClC(Cl)(Cl)C1c2c(ccc3c2OCO3)C=C2c3cc4c(cc3CCN21)OCO4 (stereo not drawn) [AB35421] | 21.2 | 12.4 | 5.77
21 | CCCCCC1=C2c3cc4c(cc3CCN2C(C)c2c1ccc(OC)c2OC)OCO4 (stereo not drawn) [AB35422] | 4.94 | 5.48 | 2.32
22 | COc1ccc2c(c1OCCCCNC(=O)OC(C)(C)C)C(C(Cl)(Cl)Cl)N1CCc3cc4c(cc3C1=C2)OCO4 (stereo not drawn) [AB35423] | 4.36 | 4.96 | 2.16
23 | COc1ccc2c(c1OCCNC(=O)OC(C)(C)C)C(C)N1CCc3cc4c(cc3C1=C2)OCO4 (stereo not drawn) [AB35424] | 10.8 | 11.2 | 5.02
24 | CCCCCCC1c2c(ccc3c2OCO3)C=C2c3cc4c(cc3CCN21)OCO4 (stereo not drawn) [AB35426] | 2.12 | 1.56 | 0.46
25 | CC1c2c(ccc3c2OCO3)C(CCCc2ccccc2)=C2c3cc4c(cc3CCN21)OCO4 (stereo not drawn) [AB35427] | 3.24 | 1.82 | 0.56
26 | ClC(Cl)(Cl)C1c2c(ccc3c2OCO3)C(CCCc2ccccc2)=C2c3cc4c(cc3CCN21)OCO4 (stereo not drawn) [AB35428] | 15.4 | 10.2 | 4.23
27 | COc1ccc2c(c1OC/C=C(\C)CCC=C(C)C)C(C1CCCC1)N1CCc3cc4c(cc3C1=C2)OCO4 (stereo not drawn) [AB35438] | 3.22 | 2.12 | 0.72
28 | COc1ccc2c(c1OCCCCCCCl)C(C1CCCC1)N1CCc3cc4c(cc3C1=C2)OCO4 (stereo not drawn) [AB35440] | 4.12 | 2.56 | 0.98

Row | Compound | IC50 (sh-DNMT1 NCI-H82 cell) [µM] | IC50 (ov-NNMT NCI-H82 cell) [µM] | IC50 (Con-NCI-H82 cell) [µM]
29 | COc1ccc2c(c1OCCCN1CCCCC1)C(C)N1CCc3cc4c(cc3C1=C2)OCO4 (stereo not drawn) [AB35442] | 9.32 | 8.38 | 9.22
30 | COc1ccc2c(c1OCCN1CCCCC1)C(C)N1CCc3cc4c(cc3C1=C2)OCO4 (stereo not drawn) [AB35443] | 20.9 | 18.1 | 20.6
31 | COc1ccc2c(c1OC)C(C(Cl)(Cl)Cl)N1CCc3cc4c(cc3C1=C2CCc1ccccc1)OCO4 (stereo not drawn) [AB35444] | 5.28 | 4.21 | 1.15
32 | CCCCN1CCN(c2c(OC)ccc3c2C(C(Cl)(Cl)Cl)N2CCc4cc5c(cc4C2=C3)OCO5)CC1 (stereo not drawn) [AB35445] | 16.4 | 13.4 | 5.55
33 | COc1ccc2c(c1OCCN(C)C)C(C(Cl)(Cl)Cl)N1CCc3cc4c(cc3C1=C2)OCO4 (stereo not drawn) [AB35446] | 17.9 | 16.3 | 18.4
34 | COc1ccc2c(c1OC)C(C(Cl)(Cl)Cl)N1CCc3cc4c(cc3C1=C2Cc1ccccn1)OCO4 (stereo not drawn) [AB35447] | 24.3 | 25.7 | 26.2
35 | COc1ccc2c(c1OC)C(C1CCCC1)N1CCc3cc4c(cc3C1=C2CCc1ccccc1)OCO4 (stereo not drawn) [AB35448] | 2.88 | 2.98 | 1.34
36 | COc1ccc2c(c1N1CCC(C)CC1)C(C(Cl)(Cl)Cl)N1CCc3cc4c(cc3C1=C2)OCO4 (stereo not drawn) [AB35453] | 2.08 | 1.32 | 0.23
37 | COc1ccc2c(c1OCCCCOc1ccccc1)C(C1CCCC1)N1CCc3cc4c(cc3C1=C2)OCO4 (stereo not drawn) [AB35454] | 4.98 | 3.25 | 1.02
38 | COc1ccc2c(c1OCCCCCCNC(=O)OC(C)(C)C)C(C1CCCC1)N1CCc3cc4c(cc3C1=C2)OCO4 (stereo not drawn) [AB35455] | 3.12 | 3.33 | 1.11
39 | COc1ccc2c(c1OCCCCl)C(C)N1CCc3cc4c(cc3C1=C2)OCO4 (stereo not drawn) [AB35456] | 8.42 | 6.72 | 2.36
40 | COc1ccc2c(c1NCCc1ccccc1)C(C1CCCC1)N1CCc3cc4c(cc3C1=C2)OCO4 (stereo not drawn) [AB35457] | 2.33 | 2.56 | 0.96
41 | COc1ccc2c(c1OCCCCCCBr)C(C1CCCC1)N1CCc3cc4c(cc3C1=C2)OCO4 (stereo not drawn) [AB35458] | 5.32 | 4.12 | 1.56
42 | COc1ccc2c(c1OC(=O)CC13CC4CC(CC(C4)C1)C3)C(C1CCCC1)N1CCc3cc4c(cc3C1=C2)OCO4 (stereo not drawn) [AB35459] | 16.5 | 12.3 | 4.97
43 | COc1ccc2c(c1OC)C(C1CCCC1)N1CCc3cc4c(cc3C1=C2Cc1ccc(C(C)C)cc1)OCO4 (stereo not drawn) [AB35460] | 2.56 | 2.02 | 0.66
44 | COc1ccc2c(c1N1CCC(NC(=O)OC(C)(C)C)CC1)C(C(Cl)(Cl)Cl)N1CCc3cc4c(cc3C1=C2)OCO4 (stereo not drawn) [AB35465] | 8.84 | 9.32 | 2.69
45 | COc1ccc2c(c1OCCCBr)C(C(Cl)(Cl)Cl)N1CCc3cc4c(cc3C1=C2)OCO4 (stereo not drawn) [AB35466] | 4.48 | 3.56 | 1.01
46 | C1=C2c3cc4c(cc3CCN2C(C2CCCC2)c2cc3c(cc21)OCO3)OCO4 (stereo not drawn) [AB35467] | 15.4 | 13.3 | 5.64
47 | COc1ccc2c(c1OC)C(C)N1CCc3cc4c(cc3C1=C2CCCCc1ccccc1)OCO4 (stereo not drawn) [AB35468] | 4.32 | 3.12 | 0.82
48 | COc1ccc2c(c1OC)C(C(Cl)(Cl)Cl)N1CCc3cc4c(cc3C1=C2CCCCc1ccccc1)OCO4 (stereo not drawn) [AB35469] | 5.32 | 3.52 | 0.79
49 | COc1ccc2c(c1OCCCCCCCl)C(C(Cl)(Cl)Cl)N1CCc3cc4c(cc3C1=C2)OCO4 (stereo not drawn) [AB35475] | 4.02 | 4.12 | 1.29
50 | COc1ccc2c(c1OCCCF)C(C(Cl)(Cl)Cl)N1CCc3cc4c(cc3C1=C2)OCO4 (stereo not drawn) [AB35478] | 4.02 | 4.32 | 1.23
51 | COc1ccc2c(c1OC)C(C(Cl)(Cl)Cl)N1CCc3cc4c(cc3C1=C2CCCc1ccccc1)OCCO4 (stereo not drawn) [AB35484] | 3.32 | 3.56 | 0.77
52 | COc1ccc2c(c1OCCCF)C(C)N1CCc3cc4c(cc3C1=C2)OCO4 (stereo not drawn) [AB35485] | 16.8 | 12.3 | 4.55
53 | COc1ccc2c(c1NCCc1ccccc1)C(C(Cl)(Cl)Cl)N1CCc3cc4c(cc3C1=C2)OCO4 (stereo not drawn) [AB35486] | 2.56 | 1.34 | 0.25
54 | CCCCCCOc1c(OC)ccc2c1C(C(Cl)(Cl)Cl)N1CCc3cc4c(cc3C1=C2)OCO4 (stereo not drawn) [AB35487] | 3.23 | 1.98 | 0.49
55 | CCC1=C2c3cc4c(cc3CCN2C(C(Cl)(Cl)Cl)c2c1ccc(OC)c2OC)OCO4 (stereo not drawn) [AB35488] | 9.32 | 7.56 | 1.98
